# Assay results from patent EP2792354A2, “COMPOSITION OF […] ACUTE AND CHRONIC HEPATIC ENCE[…] METHOD FOR TREATING ACUTE AND CHRONIC HEPATIC ENCEPHALOPATHY” (Obshchestvo S Ogranichennoj Otvetstvennostju …, priority 2011, dated 2012).
# Key:
# [1] = type 2 diabetes (D2) mice, CCl4, injections 3 days; alive animals
# Method: In the experiments, male albino mice weighing 20 - 35 g after 12 hours of fasting. • 1. […] The recommended classification of the stages of HE for laboratory animals was used (116). • 2.1 The models of acute liver failure , resulting in necrosis and fatty degeneration of the liver cells due to oxidative stress , by introducing :CCl4 (2 - 4ml/kg subcutaneously or i.p.); acetaminophen-AAF (300 - 500mg/kg i.p.) or thioacetamide (TAA , 300 - 500mg / kg i.p.), in accordance with known data (103,104,116-118). […] Control the level of glucose, insulin , ALT , bilirubin, glycerol, triglycerides and fatty acids in the blood and in the liver, histological examination of the liver was carried out. • 2.2.2 The model of type 2 diabetes, according to the data of (115), in which after 1 - 2 months of feeding fat, animals were injected i.p. 50mg/kg of streptozotocin (to suppress the activity of β-cells) and then 15 days later , after controlling for the main indicators of the blood ,were used in the experiments.
# The comparison of the efficacy of compositions ∑3 and LoLa on the alive diabetic animals treated with CCL4 and protectors used (according to pp.4-6 of Tab.2)
# [2] = tested on: acute HE, induced by ammonia injection in mice; experiment: CCl4 pretreatment 24 hours before lethal dose of NH4Cl (preconditioning), animal survival; format: in vivo; conditions: CCl4 2 ml/kg wt 24 hours before NH4Cl LD100+; NaCl instead of protector
# Method: Table 1. […] Introduction of various doses of NH4 (12-14 mmol / kg) at 24 hours after administration of these toxins, can cause the development of acute HE and death of most or all animals. However, this effect depends on the dose used toxins CCl4. It can be seen that low doses of CCl4 (2ml/kg), being administered to intact animals , results in almost total protection against the lethal dose of NH4, resulting in the survival of 80 % of treated animals, i.e. there is the effect of preconditioning.
Structure (SMILES),AAT plasma [1],Glucose Plasma [1],LCFA Plasma [1],% survival [2]
[Cl-].[Na+] [NaCl],1540±350 U/L,"13,1±0,8 mMol","1,55±0,28 mMol",–
ClC(Cl)(Cl)Cl [CCl4],–,–,–,80%
